According to US10799545B2, “Transdermal delivery of cannabidiol with other active moieties including cannabinoids” (LIFE TECH GLOBAL, LLC, priority 2016, dated 2020):
“Also recorded” adds a separate entry of the source.

How the values were obtained:
[1] = Franz Diffusion Cell, CBD flux from reservoir transdermal device through human cadaver epidermis; format: in vitro ADME
Protocol: The effects of using a hydrophobic, porous membrane versus a hydrophilic, porous membrane (such as membrane 24) in reservoir transdermal device 20 are studied in this example. A mixture is formed by dissolving CBD powder in ethanol to yield a solution comprising 10 percent by weight CBD and 90 percent by weight ethanol. The backing 22 is an occlusive backing film (PE/PET from 3M). Hydroxy ethyl cellulose is added to the solution to yield a thixotropic preparation 27. A volume of 300 μL of the preparation is placed in the reservoir 26.
The skin adhesive 30 is a BIO PSA 7-4301 adhesive coated to a thickness of 15 g/m^2 on side 36 of membrane 24. An overlay adhesive patch is placed over the reservoir which forms an island in the middle. The overlay assures adhesion of the reservoir to the skin. The device 20 is contacted with a human cadaver epidermis, and diffusion through the epidermis is measured using the Franz Diffusion Cell method.
In a first run, membrane 24 is a Lydall® Evopor™ 5E02A, hydrophilic, microporous membrane (of 0.2 μm pore size). In a second run, the device 20 is constructed similarly, but membrane 24 is a hydrophobic Lydall® Solupor™ 7P03A porous membrane.
The reservoir device 20 of Example 1 is used, but instead of using ethanol alone as the liquid carrier, a mixture of ethanol and water is used wherein the ethanol comprises 70 percent by weight of the ethanol/water mixture, and water comprises 30 percent by weight of the ethanol/water mixture. The amount of CBD by weight of the combination of CBD and ethanol/water is 5 percent, and the amount of ethanol/water is 91.5 percent. The gelling agent is hydroxyethylcellulose, which is present in an amount of about 3.5% by weight of the preparation 27. […]
The device 20 is contacted with a human cadaver epidermis, and diffusion through the epidermis is measured using the Franz Diffusion Cell method. In a first run, the hydrophilic, porous membrane 24 of Example 1 is used. In a second run, the membrane 24 is omitted so that CBD diffuses directly through the skin adhesive 30.
This example is conducted using three reservoir transdermal devices such as those of Example 1, with each having the hydrophilic, porous membrane described therein. In each case, the preparation includes a mixture of CBD and a liquid carrier with ten (10) percent CBD by weight of the CBD/liquid carrier mixture. Three runs are conducted, each with a device that includes a different liquid carrier in its preparation 27: 1, 2 propylene glycol, PEG-300, and oleic acid. Diffusion through a human cadaver epidermis is measured using the Franz Diffusion Method.
This example is similar to Example 3, except that an ethanol carrier is also tested. As stated above, FIG. 6 is a graph depicting the cumulative flux (μg/cm^2) of CBD through a human cadaver epidermis over a six hour period from solutions comprising ten (10) percent by weight CBD and 90 percent by weight of one of four liquid carriers.

[2] = Franz Diffusion Cell, CBD flux from monolithic adhesive patch through human cadaver skin; format: in vitro ADME; details: monolithic patches: Vistanex LM 5% or 10% CBD, DuroTak 87-2516 10% CBD, BIO PSA 7-4302 5% CBD (FIG. 7)
Protocol: Formulations of monolithic patches were prepared by solubilizing CBD in different adhesives and CBD transdermal flux was performed through human cadaver skin using Franz Diffusion Cell method. We found the highest transdermal flux of CBD from a formulation that comprises PIB adhesive and 10% CBD.
A monolithic transdermal device 40 is constructed using a matrix 44 of pure CBD and three different adhesives. A first device 40 includes a PE/PET backing and a matrix 44 comprising 95 percent Vistanex) LM polyisobutylene adhesive by weight of matrix 44 mixed with 5 percent substantially pure CBD by weight of matrix 44. A second device is similarly constructed, but the amount of CBD in the matrix 44 is 10 percent by weight of the matrix 44, and the amount of Vistanex LM is 90 percent by weight of the matrix 44. A third patch is constructed using a DuroTak 87-2516 adhesive in an amount of 90 percent by weight of matrix 44 and 10 percent CBD by weight of matrix 44, and a fourth patch is constructed using a BIO PSA 7-4302 adhesive in an amount of 95 percent by weight of matrix 44 and 5 percent CBD by weight of matrix 44.

[3] = 10% CBD / 90% liquid carrier, six hour period (FIG. 6)

With C=C(C)[C@@H]1CCC(C)=C[C@H]1c1c(O)cc(CCCCC)cc1O [CBD, Cannabidiol] the “permeability of CBD through the skin, with versus without membrane 24” value ([1]; 5% CBD in ethanol/water 70/30, hydrophilic porous membrane used or omitted (FIG. 4)) was “the same”, the “cumulative flux of CBD, hydrophilic membrane device versus hydrophobic membrane device” value ([1]; 10% CBD / 90% ethanol, hydrophilic Evopor 5E02A membrane, after about 9 hours (FIG. 3)) was “significantly exceeds” and the “rate of transfer of CBD through the skin, oleic acid versus 1,2 propylene glycol or PEG-300” value ([1]; 10% CBD / 90% liquid carrier, hydrophilic membrane, six hour period (FIG. 5)) was “significantly better”. The “transfer of CBD through the skin, ethanol relative to 1,2 propylene glycol and PEG-300” value [1, 3] was “superior”, the “transfer of CBD through the skin, oleic acid relative to ethanol, 1,2 propylene glycol and PEG-300” value [1, 3] was “superior” and the “expected daily dose, reservoir device relative to monolithic patch of the same skin contact area” value ([1]; 20 cm^2 skin contact area) was “six times higher”. The “cumulative flux of cannabidiol (CBD)” value ([1]; reservoir device, 5% by weight CBD and 70% by weight ethanol liquid carrier, at 12 hours) was 110 micrograms/cm^2, the “cumulative flux of cannabidiol (CBD)” value ([1]; reservoir device, 5% by weight CBD and 70% by weight ethanol liquid carrier, at 24 hours) was 300 micrograms/cm^2 and the “cumulative flux of CBD, asymptotic value” ([1]; reservoir device, 10% CBD / 90% ethanol, hydrophobic Solupor 7P03A porous membrane (FIG. 3)) was “about 300 μg/cm^2”. The “cumulative flux of cannabidiol (CBD)” value ([1]; reservoir device, 10% by weight CBD and 90% by weight ethanol liquid carrier, hydrophilic porous membrane, at 7 hours) was 150 micrograms/cm^2, the “cumulative flux of cannabidiol (CBD)” value ([1]; reservoir device, 10% by weight CBD and 90% by weight ethanol liquid carrier, hydrophilic porous membrane, at 17 hours) was 700 micrograms/cm^2 and the “cumulative flux of cannabidiol (CBD)” value ([1]; reservoir device, 10% by weight CBD and 90% by weight oleic acid, over six hours) was 180 micrograms/cm^2. For the same compound, the “cumulative flux of cannabidiol (CBD)” value ([1]; reservoir device, ethanol liquid carrier, over 6 hours) was 70 micrograms/cm^2, the “transdermal delivery of CBD from saturated ethanol solution versus monolithic patch” value ([1]; reservoir patch formulation) was “significantly higher” and the “transdermal flux of CBD, PIB (Vistanex LM) adhesive / 10% CBD relative to the other monolithic formulations” value [2] was “superior; also recorded: highest”.
